The results in this text go back to patent publication US20230265151A1, “GIP/GLP1 CO-AGONIST COMPOUNDS” (priority 2020, published 2023).

Where two headings read alike, the source gives them in different places. *1 amine or outer side, *2 acyl side, *3 side chain or, on linkers, in order; H or OH if unused. Where a SMILES comes first, the peptide text is derived from it. Side-chain parts run from the residue outwards. [ ]: non-standard residue; d: D form. The star is where a group is joined. Butanoyl(4-(4-tBuPh)) = CC(C)(C)c1ccc(CCCC(=O)*)cc1; αMePhe(2-F) = C[C@](N)(Cc1ccccc1F)C(=O)O; γGlu = O=C(O)[C@H](CCC(=O)[*:2])N[*:1]; αMeY = C[C@](N)(Cc1ccc(O)cc1)C(=O)O; 4Pal = N[C@@H](Cc1ccncc1)C(=O)O; αMeL = CC(C)C[C@](C)(N)C(=O)O; Orn = NCCC[C@H](N)C(=O)O; AEEA = NCCOCCOCC(=O)O; Aib = CC(C)(N)C(=O)O

Type in all cases: cell-based
The target in one experiment is T1, hGCGR (Homo sapiens, UniProt P47871).
T1 construct: expressed in transfected cells
T1 sequence (P47871 26-477): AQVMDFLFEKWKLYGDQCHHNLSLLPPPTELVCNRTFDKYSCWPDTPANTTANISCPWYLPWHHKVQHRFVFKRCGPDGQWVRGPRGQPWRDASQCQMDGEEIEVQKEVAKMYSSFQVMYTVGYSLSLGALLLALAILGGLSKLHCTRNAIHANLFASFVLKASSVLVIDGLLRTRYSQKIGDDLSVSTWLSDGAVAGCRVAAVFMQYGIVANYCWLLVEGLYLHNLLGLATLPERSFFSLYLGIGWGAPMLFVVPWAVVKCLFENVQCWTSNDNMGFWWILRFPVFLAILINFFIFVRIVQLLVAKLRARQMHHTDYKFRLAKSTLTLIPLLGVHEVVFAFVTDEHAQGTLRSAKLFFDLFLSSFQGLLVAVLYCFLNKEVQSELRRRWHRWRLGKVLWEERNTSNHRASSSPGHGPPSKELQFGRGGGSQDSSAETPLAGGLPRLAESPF
The experiment is described as follows: Functional cAMP formation (HTRF) in HEK-293 clonal cells expressing hGCGR, 0.1% bovine casein, without or with 1.0% human serum albumin. To be noted: geometric mean, read-out: hGCGR EC50, nM (SEM, n). The method in brief: (§1)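 Cells were stimulated with peptide for 30 min at 37° C, then intracellular cAMP was measured by competitive HTRF (665/620 nm ratio) and converted to nM using a cAMP standard curve. Relative EC50 and Emax came from four-parameter logistic fits of percent maximal response against peptide concentration.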
In general terms: Changes in cAMP serve as a functional read-out for many G protein-coupled receptors.

The target in the next experiment is hGLP-1R (Homo sapiens, UniProt P43220). The experiment is described as follows: Functional cAMP formation (HTRF) in HEK-293 clonal cells expressing hGLP-1R, 0.1% bovine casein, without or with 1.0% human serum albumin. To be noted: for EC50: geometric mean, read-out: hGLP-1R EC50, nM (SEM, n); for Emax: read-out: hGLP-1R Emax, % ± SEM. Also on record: expressed in transfected cells. The method in brief:
as §1

For a further experiment, the target named is T2, hGIPR (Homo sapiens, UniProt P48546).
T2 construct: expressed in transfected cells
T2 sequence (P48546 22-466): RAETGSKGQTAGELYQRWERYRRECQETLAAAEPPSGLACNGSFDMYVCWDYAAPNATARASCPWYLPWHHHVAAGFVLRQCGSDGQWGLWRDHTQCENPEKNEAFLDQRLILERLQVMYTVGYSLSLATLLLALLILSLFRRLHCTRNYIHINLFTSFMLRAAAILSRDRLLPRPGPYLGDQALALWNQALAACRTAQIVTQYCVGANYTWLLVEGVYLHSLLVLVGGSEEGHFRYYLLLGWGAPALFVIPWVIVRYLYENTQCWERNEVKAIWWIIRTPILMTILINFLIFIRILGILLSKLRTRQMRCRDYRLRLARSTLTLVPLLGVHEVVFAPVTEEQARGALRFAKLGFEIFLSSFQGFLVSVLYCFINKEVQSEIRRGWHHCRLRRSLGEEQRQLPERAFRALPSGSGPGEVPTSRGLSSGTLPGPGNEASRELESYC
The experiment is described as follows: Functional cAMP formation (HTRF) in HEK-293 clonal cells expressing hGIPR, 0.1% bovine casein, without or with 1.0% human serum albumin. To be noted: for EC50: geometric mean, read-out: hGIPR EC50, nM (SEM, n); for Emax: read-out: hGIPR Emax, % ± SEM. A digest of the protocol:
as §1

Setting [1] is: 0.1% bovine casein and 1.0% human serum albumin, 37° C.
The mark [2] stands for this setting: cAMP, incubated at 37° C., 0.1% bovine casein (no human serum albumin).
The mark [3] stands for this setting: HEK293, 0.1% bovine casein and 1.0% human serum albumin, 37° C., percent of maximal response to GLP-1(7-36)NH2.
[4] abbreviates: HEK293, percent of maximal response to GLP-1(7-36)NH2, 37° C., 0.1% bovine casein, arithmetic mean.
Where [5] appears, read: HEK293, 0.1% bovine casein and 1.0% human serum albumin, 37° C., percent of maximal response to GIP(1-42)NH2.
[6] abbreviates: HEK293, percent of maximal response to GIP(1-42)NH2, 37° C., 0.1% bovine casein, arithmetic mean.

hGLP-1R, sequence (P43220 24-463): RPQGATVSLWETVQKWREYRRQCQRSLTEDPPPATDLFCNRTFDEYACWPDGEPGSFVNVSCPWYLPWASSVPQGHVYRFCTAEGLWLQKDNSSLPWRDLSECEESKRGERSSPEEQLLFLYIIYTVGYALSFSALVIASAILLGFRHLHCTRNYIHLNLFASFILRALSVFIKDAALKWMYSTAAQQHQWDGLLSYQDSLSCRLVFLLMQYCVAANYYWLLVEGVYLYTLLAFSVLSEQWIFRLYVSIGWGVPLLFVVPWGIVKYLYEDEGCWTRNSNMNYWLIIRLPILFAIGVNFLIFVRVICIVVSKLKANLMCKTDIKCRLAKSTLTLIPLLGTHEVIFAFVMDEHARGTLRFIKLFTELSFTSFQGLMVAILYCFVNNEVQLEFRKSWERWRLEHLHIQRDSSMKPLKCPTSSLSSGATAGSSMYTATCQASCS

By EC50 is commonly meant the concentration giving half of the maximal effect. Usually Emax stands for the greatest response seen or fitted, relative to the assay's reference. As for `CC[C@H](C)[C@H](NC(=O)[C@H](CCCN)NC(=O)[C@H](CC(=O)O)NC(=O)[C@H](CC(C)C)NC(=O)[C@](C)(CC(C)C)NC(=O)[C@@H](NC(=O)[C@H](CO)NC(=O)[C@H](Cc1ccncc1)NC(=O)[C@H](CC(=O)O)NC(=O)[C@H](CO)NC(=O)[C@@H](NC(=O)[C@](C)(Cc1ccccc1F)NC(=O)[C@@H](NC(=O)CNC(=O)[C@H](CCC(=O)O)NC(=O)C(C)(C)NC(=O)[C@@H](N)Cc1ccc(O)cc1)[C@@H](C)O)[C@@H](C)O)[C@@H](C)CC)C(=O)N[C@@H](C)C(=O)N[C@@H](CCC(N)=O)C(=O)NC(C)(C)C(=O)N[C@@H](CCCCNC(=O)COCCOCCNC(=O)COCCOCCNC(=O)CCCCCCCCCCCCC(=O)O)C(=O)N[C@@H](Cc1ccccc1)C(=O)N[C@H](C(=O)N[C@H](CCC(=O)O)C(=O)N[C@@](C)(Cc1ccc(O)cc1)C(=O)N[C@@H](CC(C)C)C(=O)N[C@H](C(=O)N[C@@H](CCC(=O)O)C(=O)NCC(=O)NCC(=O)N1CCC[C@H]1C(=O)N[C@@H](CO)C(=O)N[C@@H](CO)C(=O)NCC(=O)N[C@@H](C)C(=O)N1CCC[C@H]1C(=O)N1CCC[C@H]1C(=O)N1CCC[C@H]1C(=O)N[C@@H](CO)C(=O)N[C@@H](CCCCNC(=O)COCCOCCNC(=O)COCCOCCNC(=O)CCCCCCCCCCCCC(=O)O)C(N)=O)[C@@H](C)CC)[C@@H](C)CC` [Example 196], the EC50 at hGCGR (setting [1]) is greater than 9950 nM; at hGCGR (setting [2]), greater than 9950 nM; on hGLP-1R (setting [1]), 21.4 nM; on hGLP-1R (setting [2]) it was 0.356 nM; at hGIPR (setting [1]), 0.712 nM; at hGIPR (setting [2]), 0.0232 nM. The Emax was determined as 112 ± 4.62% at hGLP-1R (setting [3]), 96.8 ± 2.59% on hGLP-1R (setting [4]), 80.8 ± 0.269% on hGIPR (setting [5]) and 96 ± 2.1% on hGIPR (setting [6]).
For the molecule `CC[C@H](C)[C@H](NC(=O)[C@H](CC(C)C)NC(=O)[C@](C)(Cc1ccc(O)cc1)NC(=O)[C@@H](CCC(=O)O)NC(=O)[C@@H](NC(=O)[C@H](Cc1ccccc1)NC(=O)[C@H](CCC(=O)O)NC(=O)C(C)(C)NC(=O)[C@H](CCC(N)=O)NC(=O)[C@H](C)NC(=O)[C@H](CCCCNC(=O)CC[C@H](NC(=O)COCCOCCNC(=O)CCCCCCCCCCCCC(=O)O)C(=O)O)NC(=O)[C@H](CCCN)NC(=O)[C@H](CC(=O)O)NC(=O)[C@H](CC(C)C)NC(=O)[C@](C)(CC(C)C)NC(=O)[C@@H](NC(=O)[C@H](CO)NC(=O)[C@H](Cc1ccncc1)NC(=O)[C@H](CC(=O)O)NC(=O)[C@H](CO)NC(=O)[C@@H](NC(=O)[C@](C)(Cc1ccccc1F)NC(=O)[C@@H](NC(=O)CNC(=O)[C@H](CCC(=O)O)NC(=O)C(C)(C)NC(=O)[C@@H](N)Cc1ccc(O)cc1)[C@@H](C)O)[C@@H](C)O)[C@@H](C)CC)[C@@H](C)CC)C(=O)N[C@@H](CCC(=O)O)C(=O)NCC(=O)NCC(=O)N[C@@H](CCCCNC(=O)CC[C@H](NC(=O)COCCOCCNC(=O)CCCCCCCCCCCCC(=O)O)C(=O)O)C(=O)N[C@@H](CO)C(=O)N[C@@H](CO)C(=O)NCC(=O)N[C@@H](C)C(=O)N1CCC[C@H]1C(=O)N1CCC[C@H]1C(=O)N1CCC[C@H]1C(=O)N[C@@H](CO)C(N)=O` [Example 42], the EC50 at hGCGR (setting [1]) is greater than 9950 nM; on hGCGR (setting [2]), greater than 9950 nM; at hGLP-1R (setting [1]), 26.7 nM; at hGIPR (setting [1]), 1 nM; at hGIPR (setting [2]), 0.0103 nM. Moreover, the figures for the Emax at hGIPR (setting [5]) and on hGIPR (setting [6]) were 91.1 ± 0.67% and 97.8 ± 7.18%, respectively.
As for `CC[C@H](C)[C@H](NC(=O)[C@H](CCCN)NC(=O)[C@H](CC(=O)O)NC(=O)[C@H](CC(C)C)NC(=O)[C@](C)(CC(C)C)NC(=O)[C@@H](NC(=O)[C@H](CO)NC(=O)[C@H](Cc1ccncc1)NC(=O)[C@H](CC(=O)O)NC(=O)[C@H](CO)NC(=O)[C@@H](NC(=O)[C@](C)(Cc1ccccc1F)NC(=O)[C@@H](NC(=O)CNC(=O)[C@H](CCC(=O)O)NC(=O)C(C)(C)NC(=O)[C@@H](N)Cc1ccc(O)cc1)[C@@H](C)O)[C@@H](C)O)[C@@H](C)CC)C(=O)N[C@@H](C)C(=O)N[C@@H](CCC(N)=O)C(=O)NC(C)(C)C(=O)N[C@@H](CCC(=O)O)C(=O)N[C@@H](Cc1ccccc1)C(=O)N[C@H](C(=O)N[C@H](CCC(=O)O)C(=O)N[C@@](C)(Cc1ccc(O)cc1)C(=O)N[C@@H](CC(C)C)C(=O)N[C@H](C(=O)N[C@@H](CCCCNC(=O)COCCOCCNC(=O)COCCOCCNC(=O)CC[C@H](NC(=O)CCCc1ccc(C(C)(C)C)cc1)C(=O)O)C(=O)NCC(=O)NCC(=O)N1CCC[C@H]1C(=O)N[C@@H](CO)C(=O)N[C@@H](CO)C(=O)NCC(=O)N[C@@H](C)C(=O)N1CCC[C@H]1C(=O)N1CCC[C@H]1C(=O)N1CCC[C@H]1C(=O)N[C@@H](CO)C(=O)N[C@@H](CCCCNC(=O)COCCOCCNC(=O)COCCOCCNC(=O)CC[C@H](NC(=O)CCCc1ccc(C(C)(C)C)cc1)C(=O)O)C(N)=O)[C@@H](C)CC)[C@@H](C)CC` [Example 206] (H-Y[Aib]EGT[αMePhe(2-F)]TSD[4Pal]SI[αMeL]LD[Orn]IAQ[Aib]EFI[dE][αMeY]LIK([AEEA-AEEA-γGlu-Butanoyl(4-(4-tBuPh))])GGPSSGAPPPSK([AEEA-AEEA-γGlu-Butanoyl(4-(4-tBuPh))])-NH2), the EC50 was greater than 9950 nM on hGCGR (setting [1]); greater than 9950 nM at hGCGR (setting [2]); 3.03 nM on hGLP-1R (setting [1]); 0.299 nM on hGLP-1R (setting [2]); 0.242 nM at hGIPR (setting [1]); 0.0204 nM on hGIPR (setting [2]). In addition, the maximum response (Emax) on hGLP-1R (setting [3]) amounted to 98.1%; at hGLP-1R (setting [4]) it was 100%; on hGIPR (setting [5]) it was 77.6%; on hGIPR (setting [6]) it was 96.4%.
